Assays:
Format in all cases: in vivo
Lolium multiflorum Lam. [1] = test: Test Example 4: herbicidal effect by soil treatment (symbol K); settings: application herbicide amount 320 g/ha
Method in brief: (§1)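 Seeds were sown in sterilized diluvial soil, covered with about 1.5 cm of soil, and the soil surface was sprayed with a water-diluted emulsion of the compound at a predetermined rate. Plants grew in a greenhouse at 25° C. to 30° C.; effects were scored visually 3 weeks after application.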

Lolium multiflorum Lam. [2] = test: Test Example 5: herbicidal effect by foliage application, plastic box (symbol K); settings: 320 g/ha, 3 weeks after application
Method in brief: (§2)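 Effect is rated 3 weeks after a foliar spray of water-diluted emulsion concentrate at a predetermined herbicide amount. Plants had grown 14 days in a 25° C. to 30° C. greenhouse from seed in sterilized diluvial soil.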

wheat = test: Test Example 4: effect on crop by soil treatment (symbol e); settings: application herbicide amount 320 g/ha
Method in brief: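 Seeds were sown in spots on sterilized diluvial soil in a plastic box and covered with about 1.5 cm of soil. Plants were then grown in a greenhouse at 25° C. to 30° C.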

Veronica persica = test: Test Example 4: herbicidal effect by soil treatment (symbol R); settings: application herbicide amount 320 g/ha
Method in brief: as §1

Abutilon theophrasti = test: Test Example 5: herbicidal effect by foliage application, plastic box (symbol M); settings: 320 g/ha, 3 weeks after application
Method in brief: as §2

Amaranthus retroflexus = test: Test Example 4: herbicidal effect by soil treatment (symbol N); settings: application herbicide amount 320 g/ha
Method in brief: as §1

beet = test: Test Example 5: effect on crop by foliage application, plastic box (symbol f); settings: 320 g/ha, 3 weeks after application
Method in brief: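 Crop and weed seeds sown in spots in sterilized diluvial soil in plastic boxes and covered with about 1.5 cm soil. Plants raised in a greenhouse at 25° C. to 30° C. for foliar application.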

[3] = test system: Echinochloa crus-galli var. crus-galli; test: Test Example 3: herbicidal effect by foliage application, Wagner pot (symbol H); settings: application herbicide amount 320 g/ha
Method in brief: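 Plants sown in submerged alluvial soil (water depth 0.1–0.5 cm) in a 25–30 °C greenhouse and grown 14 days. An emulsion of the compound diluted in water to a set herbicide amount was sprayed uniformly on foliage. Effect on each plant scored 3 weeks after application.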

transplanted rice plant = test: Test Example 1: effect on crop, application before weed generation in submerged conditions (symbol a); settings: application herbicide amount 320 g/ha
Method in brief: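 Alluvial soil pots flooded to 4 cm water, sown with Echinochloa oryzacola, Scirpus juncoides and Monochoria vaginalis, then transplanted with 2.5 leaf stage rice seedlings; pre-emergence application. Greenhouse 25° C. to 30° C.; scored 0–5 by herbicidal ratio 3 weeks after application.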

Setaria viridis = test: Test Example 4: herbicidal effect by soil treatment (symbol G); settings: application herbicide amount 320 g/ha
Method in brief: as §1

Digitaria ciliaris [4] = test: Test Example 5: herbicidal effect by foliage application, plastic box (symbol F); settings: 320 g/ha, 3 weeks after application
Method in brief: as §2

Digitaria ciliaris [5] = test: Test Example 4: herbicidal effect by soil treatment (symbol F); settings: application herbicide amount 320 g/ha
Method in brief: as §1

Chenopodium album [6] = test: Test Example 5: herbicidal effect by foliage application, plastic box (symbol O); settings: 320 g/ha, 3 weeks after application
Method in brief: as §2

Galium spurium = test: Test Example 4: herbicidal effect by soil treatment (symbol Q); settings: application herbicide amount 320 g/ha
Method in brief: as §1

Chenopodium album [7] = test: Test Example 4: herbicidal effect by soil treatment (symbol O); settings: application herbicide amount 320 g/ha
Method in brief: as §1

Alopecurus myosuroides = test: Test Example 5: herbicidal effect by foliage application, plastic box (symbol J); settings: 320 g/ha, 3 weeks after application
Method in brief: as §2

Stellaria media = test: Test Example 5: herbicidal effect by foliage application, plastic box (symbol P); settings: 320 g/ha, 3 weeks after application
Method in brief: as §2

[8] = test system: directly sowed rice plant; test: Test Example 3: effect on crop by foliage application, Wagner pot (symbol b); settings: application herbicide amount 320 g/ha
Method in brief: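 Plants are raised from seed in flooded paddy conditions: water stands 0.1–0.5 cm over alluvial soil, and the pot is kept in a greenhouse at 25–30 °C. Species sown are barnyardgrass (E. crus-galli var. crus-galli), Leptochloa chinensis, Cyperus difformis and rice.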

Row | SMILES | Herbicidal effect grade, K: Lolium multiflorum Lam. (Lolium multiflorum Lam. [1]) | K: Lolium multiflorum Lam., herbicidal effect (criteria of Test Example 1) (Lolium multiflorum Lam. [2]) | Effect on crop grade, e: wheat (wheat) | Herbicidal effect grade, R: Veronica persica (Veronica persica) | M: Abutilon theophrasti, herbicidal effect (criteria of Test Example 1) (Abutilon theophrasti) | Herbicidal effect grade, N: Amaranthus retroflexus (Amaranthus retroflexus) | f: beet, effect on crop (criteria of Test Example 1) (beet) | herbicidal effect on H (Echinochloa crus-galli var. crus-galli), grade 0-5 [3] | Effect grade on crop, a: transplanted rice plant (transplanted rice plant) | Herbicidal effect grade, G: Setaria viridis (Setaria viridis) | F: Digitaria ciliaris, herbicidal effect (criteria of Test Example 1) (Digitaria ciliaris [4]) | Herbicidal effect grade, F: Digitaria ciliaris (Digitaria ciliaris [5]) | O: Chenopodium album, herbicidal effect (criteria of Test Example 1) (Chenopodium album [6]) | Herbicidal effect grade, Q: Galium spurium (Galium spurium) | Herbicidal effect grade, O: Chenopodium album (Chenopodium album [7]) | J: Alopecurus myosuroides, herbicidal effect (criteria of Test Example 1) (Alopecurus myosuroides) | P: Stellaria media, herbicidal effect (criteria of Test Example 1) (Stellaria media) | effect on crop b (directly sowed rice plant), grade 0-5 [8] | also measured
1 | CC(=O)CC1CC(O)=C(c2c(C)cc(-n3cccn3)cc2C)C1=O (stereo not drawn) [7-024] | 0 (Herbicidal ratio of 5% or lower (almost no effect)) | 3 (Herbicidal ratio of 40% or higher and lower than 70%) | 0 (Herbicidal ratio of 5% or lower (almost no effect)) | 0 (Herbicidal ratio of 5% or lower (almost no effect)) | 0 (Herbicidal ratio of 5% or lower (almost no effect)) | 0 (Herbicidal ratio of 5% or lower (almost no effect)) | 0 (Herbicidal ratio of 5% or lower (almost no effect)) | 5 (Herbicidal ratio of 90% or more (almost completely withered)) | 2 (Herbicidal ratio of 20% or higher and lower than 40%) | 0 (Herbicidal ratio of 5% or lower (almost no effect)) | 0 (Herbicidal ratio of 5% or lower (almost no effect)) | 4 (Herbicidal ratio of 70% or higher and lower than 90%) | 0 (Herbicidal ratio of 5% or lower (almost no effect)) | 0 (Herbicidal ratio of 5% or lower (almost no effect)) | 0 (Herbicidal ratio of 5% or lower (almost no effect)) | 2 (Herbicidal ratio of 20% or higher and lower than 40%) | 0 (Herbicidal ratio of 5% or lower (almost no effect)) | 3 (Herbicidal ratio of 40% or higher and lower than 70%) | –
2 | CON=C(C)CC1CC(OCOC(=O)c2ccccc2)=C(c2c(C)cc(-c3ccc(Cl)cc3)cc2C)C1=O (stereo not drawn) [6-083] | – | 4 (Herbicidal ratio of 70% or higher and lower than 90%) | – | – | 5 (Herbicidal ratio of 90% or more (almost completely withered)) | – | 3 (Herbicidal ratio of 40% or higher and lower than 70%) | 5 (Herbicidal ratio of 90% or more (almost completely withered)) | 5 (Herbicidal ratio of 90% or more (almost completely withered)) | – | 5 (Herbicidal ratio of 90% or more (almost completely withered)) | – | 5 (Herbicidal ratio of 90% or more (almost completely withered)) | – | – | 5 (Herbicidal ratio of 90% or more (almost completely withered)) | 1 (Herbicidal ratio of 5% or higher and lower than 20%) | 5 (Herbicidal ratio of 90% or more (almost completely withered)) | K: Lolium multiflorum Lam., herbicidal effect grade (Lolium multiflorum Lam. [1]): 1 (Herbicidal ratio of 5% or higher and lower than 20%); e: wheat, effect on crop grade (wheat): 0 (Herbicidal ratio of 5% or lower (almost no effect)); R: Veronica persica, herbicidal effect grade (Veronica persica): 3 (Herbicidal ratio of 40% or higher and lower than 70%); N: Amaranthus retroflexus, herbicidal effect grade (Amaranthus retroflexus): 0 (Herbicidal ratio of 5% or lower (almost no effect)); G: Setaria viridis, herbicidal effect grade (Setaria viridis): 5 (Herbicidal ratio of 90% or more (almost completely withered)); F: Digitaria ciliaris, herbicidal effect grade (Digitaria ciliaris [5]): 5 (Herbicidal ratio of 90% or more (almost completely withered)); Q: Galium spurium, herbicidal effect grade (Galium spurium): 0 (Herbicidal ratio of 5% or lower (almost no effect)); O: Chenopodium album, herbicidal effect grade (Chenopodium album [7]): 0 (Herbicidal ratio of 5% or lower (almost no effect))
3 | CC(=O)CC1CC(O)=C(c2c(C)cc(OCc3ccccc3)cc2C)C1=O (stereo not drawn) [7-018] | 0 (Herbicidal ratio of 5% or lower (almost no effect)) | 2 (Herbicidal ratio of 20% or higher and lower than 40%) | 0 (Herbicidal ratio of 5% or lower (almost no effect)) | 0 (Herbicidal ratio of 5% or lower (almost no effect)) | 0 (Herbicidal ratio of 5% or lower (almost no effect)) | 0 (Herbicidal ratio of 5% or lower (almost no effect)) | 0 (Herbicidal ratio of 5% or lower (almost no effect)) | 3 (Herbicidal ratio of 40% or higher and lower than 70%) | 2 (Herbicidal ratio of 20% or higher and lower than 40%) | 1 (Herbicidal ratio of 5% or higher and lower than 20%) | 5 (Herbicidal ratio of 90% or more (almost completely withered)) | 3 (Herbicidal ratio of 40% or higher and lower than 70%) | 0 (Herbicidal ratio of 5% or lower (almost no effect)) | 0 (Herbicidal ratio of 5% or lower (almost no effect)) | 0 (Herbicidal ratio of 5% or lower (almost no effect)) | 0 (Herbicidal ratio of 5% or lower (almost no effect)) | 0 (Herbicidal ratio of 5% or lower (almost no effect)) | 3 (Herbicidal ratio of 40% or higher and lower than 70%) | –

Reference: patent US11000033B2, “Ketone or oxime compound, and herbicide” (NISSAN CHEMICAL CORPORATION, priority 2014, dated 2021)
